The values that follow come from article PMC9738107, “Targeting of the ELR+CXCL/CXCR1/2 Pathway Is a Relevant Strategy for the Treatment of Paediatric Medulloblastomas” (Cells, 2022).

Assay type in all cases: cell-based, human
Experiment [1] deals with Daoy cells. The experiment in a line: CXCL8-induced migration in Boyden chamber. As to conditions: 1 µM, 200 ng/mL CXCL8. The procedure: (§1) Figure 4 C29 reduces proliferation, migration, and invasion of naïve MB cells. (A) Proliferation of Daoy, ONS-76, HD-MB03, and D341Med wild-type cells after treatment with 1 μM C29 or the control (DMSO), n = 3. (B) Clonogenic assay on Daoy (n = 4), ONS-76 (n = 3) and HD -MB03 (n = 5) cells after treatment with control (DMSO) or C29 (1 μM or 2.5 μM). Scale = 500 μm. (C) Cell migration through the Boyden chamber of Daoy and ONS-76 cells specifically attracted by 200 ng/mL CXCL8. Results are expressed as percentage of control (DMSO) (n = 3). Scale = 1000 μm. (D) Spheroid invasion using 3D culture cell assays on Daoy (n = 4) and ONS-76 cells (n = 3) treated with control (DMSO) or C29 at a concentration of 1 μM on day 0, 1, and 2. Results are expressed as percentage of day 0, n = 4. Scale = 500 μm. Statistics were performed using Student t-test for 2 comparisons only or ANOVA test for multiple comparisons. * p < 0.05, ** p < 0.01, *** p < 0.001. […]
(§2) each month by using PlasmoTest Kit (#10L07‐MM, InvivoGen, Toulouse, France). Daoy and ONS‐76 belong to the Shh genetic subgroup, D341‐Med and HD‐MB03 to group 3. […]
(§3) (1, 2∙5, 5μM) for 48 hours. […]
(§4) Data were presented with the percentage of cell death after subtracting the percentage of untreated and unlabelled dead cells.
(§5) Migration in Boyden chambers
(§6) The cells were deprived of serum overnight. […] Cells were counted using ImageJ software (NIH). […]

Experiment [2] has as its system ONS-76 cells. The experiment in a line: CXCL8-induced migration in Boyden chamber. As to conditions: ONS-76, 1 µM, 200 ng/mL CXCL8. The method, then: as §1, §2, §3, §4, §5, §6
Experiment [3] deals with Daoy cells. Kind of experiment: Clonogenic assay. As to conditions: 1 µM. The procedure:
as §1, §2
(§7) 150 Daoy/DR1/DR2/ ONS ‐ 76 and 300 HD ‐ MB03/HR1/HR2 cells were seeded in trip‐ licate in 6‐well plates in the presence or absence of treatment (1 or 2∙5μM […] or DMSO as control). On day 9 (Daoy/ONS‐76) and day 11 (HD ‐MB03), cells were fixed in ice‐cold absolute ethanol (Sigma) for 20 min, washed with PBS and then stained with Giemsa 50% for 30 min. The number of clones was quantified using ImageJ software. We only considered clones containing more than 50 cells. […]
Violet. […]
(§8) 5000 cells were plated in 48 multi‐well plates coated with agarose 0∙8%. After two days, spheroids were mixed with 100μl of matrigel mix (200μl of matrigel (Corning Mat‐ rigel Matrix, Fontenay‐sous‐Bois, France), 100 μl collagen I (8 mg/ml, Corning), 80 μl HEPES 1M and 320μl respective medium) in 12 multi‐well plates. […]

Experiment [4] relates to HD-MB03 cells. Kind of experiment: Clonogenic assay. As to conditions: HD-MB03, 1 µM. The method, then:
as §1, §2, §7
Violet. […]
as §8

Experiment [5] concerns ONS-76 cells. Kind of experiment: Clonogenic assay. The procedure: as §1, §2, §7
Violet. […]
as §8

The subject of experiment [6] is DR1/DR2 and HR1/HR2 radio-resistant cells. Kind of experiment: Cell proliferation assay (cell counting), radiation-resistant cells. As to conditions: 1 µM. The procedure: Figure 8 C29 is efficient on radioresistant MB cell lines. (A) Cell death after 48 h of treatment with control (DMSO, CT) or C29 1, 2.5, or 5 µM on radiation-resistant cells (RR) and normal cells (N), n = 3. Statistics were performed using the one-way method ANOVA. * p < 0.05, ** p < 0.01, *** p < 0.001. For this figure, DR1 = D1, DR2 = D2, HR1 = H1, HR2 = H2, and C8D1A = C8. (B) Proliferation of DR1/DR2 (A) and HR1/HR2 (B) radio-resistant cells after 1 µM C29 treatment or control (DMSO), n = 3. (C) Clonogenic assay on DR1, DR2 (n = 3) and HR1, HR2 (n = 3) cells after treatment with control (DMSO) or C29 (1 µM or 2.5 µM). […] Results are expressed as percentage of control (n = 3). […]
1500 Daoy, ONS ‐76, HD ‐MB03 or D341 Med cells were sown in triplicate in plates with six wells and the cells were counted daily for 8 days using a Coulter counter (Ville‐ pinte). The relative number of cells (compared to day 1) was determined daily. […]
Y = Y0 * exp(k * X) (Y= Cell number at day X; Y0= Cell number at day 0 (graphically calculated); X= Day following cell plating (cells plated at X0=0); k= Exponential growth constant rate. Doubling times were compared.
150 Daoy/DR1/DR2/ ONS ‐ 76 and 300 HD ‐ MB03/HR1/HR2 cells were seeded in trip‐ licate in 6‐well plates in the presence or absence of treatment (1 or 2∙5μM MCK140 or DMSO as control). […] The number of clones was quantified using ImageJ software. […]

For `O=C(Nc1cccc(Cl)c1)Nc1nc2ccc([N+](=O)[O-])cc2s1` [C29, 1-(3-chlorophenyl)-3-(6-nitrobenzo[d]thiazol-2-yl) urea], the CXCL8-induced migration result in experiment [1] and in experiment [2] was “blocked CXCL8-induced migration” each time. The Clone formation entry is reported as “inhibited clone formation” in experiment [3]; “inhibited clone formation” in experiment [4]; “some clones were maintained” in experiment [5] (ONS-76, 1 µM); “disappeared completely” in experiment [5] (ONS-76, 2.5 µM). Also, the Proliferation entry in experiment [6] is on record as “reduce proliferation”.
